Source: patent US12479849B2, “EGFR inhibitors for the treatment of cancer” (Hoffmann-La Roche Inc., priority 2019, dated 2025)

target: T1, EGFR TMLRCS (Homo sapiens, UniProt P00533, C797S/L858R/T790M); assay: HTRF Phospho EGFR TMLRCS Assay (Cellular); type: cell-based; details: BaF3-TMLRCS cell line, 4 hours incubation, Phospho-EGFR HTRF readout
T1 construct: host or cells: BaF3-TMLRCS (Ba/F3 cells, kept under puromycin selection)
Procedure, shortened: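 BaF3 cells expressing EGFR L858R/T790M/C797S, 20000/well, treated with compound in dose response for 4 h at 37 °C, 5% CO2. After lysis, phospho-EGFR detected by HTRF with cryptate and d2 antibodies over 4 h at room temperature. Signal taken as 665/616 nm ratio ×10000, normalized.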

T1 sequence (P00533 25-1210 T790M/C797S/L858R): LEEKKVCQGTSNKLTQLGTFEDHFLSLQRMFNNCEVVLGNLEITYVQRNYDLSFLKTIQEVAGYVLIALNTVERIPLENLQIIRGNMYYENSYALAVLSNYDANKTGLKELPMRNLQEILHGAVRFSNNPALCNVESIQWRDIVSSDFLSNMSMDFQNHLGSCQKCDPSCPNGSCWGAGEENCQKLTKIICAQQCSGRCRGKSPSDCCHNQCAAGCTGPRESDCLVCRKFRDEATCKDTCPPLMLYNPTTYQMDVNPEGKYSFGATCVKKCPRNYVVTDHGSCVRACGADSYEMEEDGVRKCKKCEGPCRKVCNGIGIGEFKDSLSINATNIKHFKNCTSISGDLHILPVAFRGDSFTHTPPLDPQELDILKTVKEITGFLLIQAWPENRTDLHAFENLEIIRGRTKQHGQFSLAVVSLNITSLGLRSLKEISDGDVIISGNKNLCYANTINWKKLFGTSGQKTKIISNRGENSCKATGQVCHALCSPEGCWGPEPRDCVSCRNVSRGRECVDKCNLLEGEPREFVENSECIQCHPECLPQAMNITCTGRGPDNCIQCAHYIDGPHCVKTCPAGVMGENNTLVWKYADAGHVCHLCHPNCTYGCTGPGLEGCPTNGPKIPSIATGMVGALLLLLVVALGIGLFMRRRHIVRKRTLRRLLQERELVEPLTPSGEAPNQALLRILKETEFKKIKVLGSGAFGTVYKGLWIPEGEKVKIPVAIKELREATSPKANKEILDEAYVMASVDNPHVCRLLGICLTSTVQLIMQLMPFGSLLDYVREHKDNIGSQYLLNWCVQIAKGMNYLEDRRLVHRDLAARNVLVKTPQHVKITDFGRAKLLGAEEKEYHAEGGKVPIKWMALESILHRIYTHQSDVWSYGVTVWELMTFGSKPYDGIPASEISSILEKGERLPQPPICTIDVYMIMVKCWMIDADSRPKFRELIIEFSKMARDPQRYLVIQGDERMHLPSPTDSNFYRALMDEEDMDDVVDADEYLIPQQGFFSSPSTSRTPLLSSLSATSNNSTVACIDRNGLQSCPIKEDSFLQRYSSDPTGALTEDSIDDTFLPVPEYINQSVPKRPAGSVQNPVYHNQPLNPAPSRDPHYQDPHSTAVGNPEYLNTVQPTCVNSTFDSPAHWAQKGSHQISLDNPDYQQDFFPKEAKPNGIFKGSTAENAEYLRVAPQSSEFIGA

| IC50 [nM] | SMILES |
| --- | --- |
| 9 | N#Cc1cc(-c2cc(Cl)c3cn(C(C(=O)Nc4nccs4)c4ncn5c4C[C@@H](F)C5)nc3c2Cl)ccc1N1CCOCC1 (mixture of isomers) [Example 36, rac-2-(4,7-Dichloro-6-(3-cyano-4-morpholinophenyl)-2H-indazol-2-yl)-2-((R)-6-fluoro-6,7-dihydro-5H-pyrrolo[1,2-c]imidazol-1-yl)-N-(thiazol-2-yl)acetamide] |
| 5 | O=C(Nc1nccs1)C(c1ncn2c1C[C@@H](F)C2)n1cc2c(Cl)cc(-c3ccc(CN4CC5(COC5)C4)cc3)c(Cl)c2n1 (mixture of isomers) [Example 63, rac-2-(6-(4-((2-Oxa-6-azaspiro[3.3]heptan-6-yl)methyl)phenyl)-4,7-dichloro-2H-indazol-2-yl)-2-((R)-6-fluoro-6,7-dihydro-5H-pyrrolo[1,2-c]imidazol-1-yl)-N-(thiazol-2-yl)acetamide] |
| 8 | CCN1CCN(c2ccc(-c3cc(C)c4cn(C(C(=O)Nc5nccs5)c5ncn6c5C[C@@H](F)C6)nc4c3C)cc2)CC1 (stereo partly drawn) [Example 121, 2-(6-(4-(4-Ethylpiperazin-1-yl)phenyl)-4,7-dimethyl-2H-indazol-2-yl)-2-((R)-6-fluoro-6,7-dihydro-5H-pyrrolo[1,2-c]imidazol-1-yl)-N-(thiazol-2-yl)acetamide] |
| 8 | CN(C)Cc1ccc(-c2cc(Cl)c3cn(C(C(=O)Nc4nccs4)c4ncn5c4C[C@@H](F)C5)nc3c2Cl)cc1 (mixture of isomers) [Example 48, rac-2-(4,7-Dichloro-6-(4-((dimethylamino)methyl)phenyl)-2H-indazol-2-yl)-2-((R)-6-fluoro-6,7-dihydro-5H-pyrrolo[1,2-c]imidazol-1-yl)-N-(thiazol-2-yl)acetamide] |
| 15 | CCN(C)CCc1ccc(-c2cc(C)c3cn(C(C(=O)Nc4nccs4)c4ncn5c4C[C@@H](F)C5)nc3c2C)cc1 (stereo partly drawn) [Example 123] |
| 4 | CCN1CCN(c2ccc(-c3cc(Cl)c4cn(C(C(=O)Nc5nccs5)c5ncn6c5C[C@@H](F)C6)nc4c3Cl)cc2)CC1 (stereo partly drawn) [Example 26, 2-(4,7-Dichloro-6-(4-(4-ethylpiperazin-1-yl)phenyl)-2H-indazol-2-yl)-2-((R)-6-fluoro-6,7-dihydro-5H-pyrrolo[1,2-c]imidazol-1-yl)-N-(thiazol-2-yl)acetamide] |
| 2 | O=C(Nc1nccs1)C(c1ncn2c1C[C@@H](F)C2)n1cc2c(Cl)cc(-c3ccc(N4CCN(C5CC(O)C5)CC4)cc3)c(Cl)c2n1 (mixture of isomers) [Example 66, rac-2-(4,7-Dichloro-6-(4-(4-(3-hydroxycyclobutyl)piperazin-1-yl)phenyl)-2H-indazol-2-yl)-2-((R)-6-fluoro-6,7-dihydro-5H-pyrrolo[1,2-c]imidazol-1-yl)-N-(thiazol-2-yl)acetamide] |
| 12 | O=C(Nc1nccs1)C(c1ncn2c1C[C@@H](F)C2)n1cc2c(Cl)cc(-c3ccc(N4CCC(CN5CCC(O)C5)CC4)cc3)c(Cl)c2n1 (mixture of isomers) [Example 74, rac-2-(4,7-Dichloro-6-(4-(4-((3-hydroxypyrrolidin-1-yl)methyl)piperidin-1-yl)phenyl)-2H-indazol-2-yl)-2-((R)-6-fluoro-6,7-dihydro-5H-pyrrolo[1,2-c]imidazol-1-yl)-N-(thiazol-2-yl)acetamide] |
| 14 | CCN1CC[C@@H](c2ccc(-c3cc(C)c4cn(C(C(=O)Nc5nccs5)c5ncn6c5C[C@@H](F)C6)nc4c3C)cc2)[C@H](F)C1 (single isomer, unassigned) [Example 119] |
| 8 | O=C(Nc1nccs1)C(c1ncn2c1C[C@@H](F)C2)n1cc2c(Cl)cc(-c3ccc(CN4CCC5(CC4)CC(O)C5)cc3)c(Cl)c2n1 (mixture of isomers) [Example 91, rac-2-(4,7-Dichloro-6-(4-((2-hydroxy-7-azaspiro[3.5]nonan-7-yl)methyl)phenyl)-2H-indazol-2-yl)-2-((R)-6-fluoro-6,7-dihydro-5H-pyrrolo[1,2-c]imidazol-1-yl)-N-(thiazol-2-yl)acetamide] |
| 5 | O=C(Nc1nccs1)C(c1ncn2c1C[C@@H](F)C2)n1cc2c(Cl)cc(-c3ccc([C@@H]4CCN(C5CC(O)C5)C[C@H]4F)cc3)c(Cl)c2n1 (single isomer, unassigned) [Example 55] |
| 20 | O=C(Nc1nccs1)C(c1ncn2c1CCC2)n1cc2c(Cl)cc(-c3ccc(C4CCN(CCF)CC4)cc3)c(Cl)c2n1 (stereo not drawn) [Example 103, 2-(4,7-Dichloro-6-(4-(1-(2-fluoroethyl)piperidin-4-yl)phenyl)-2H-indazol-2-yl)-2-(6,7-dihydro-5H-pyrrolo[1,2-c]imidazol-1-yl)-N-(thiazol-2-yl)acetamide] |
| 7 | O=C(Nc1nccs1)C(c1ncn2c1C[C@@H](F)C2)n1cc2c(Cl)cc(-c3ccc(CCCN4CCC(O)CC4)cc3)c(Cl)c2n1 (mixture of isomers) [Example 57, rac-2-(4,7-Dichloro-6-(4-(3-(4-hydroxypiperidin-1-yl)propyl)phenyl)-2H-indazol-2-yl)-2-((R)-6-fluoro-6,7-dihydro-5H-pyrrolo[1,2-c]imidazol-1-yl)-N-(thiazol-2-yl)acetamide] |
| 8 | CN(CCN1CCC(O)CC1)c1ccc(-c2cc(Cl)c3cn(C(C(=O)Nc4nccs4)c4ncn5c4C[C@@H](F)C5)nc3c2Cl)cc1 (stereo partly drawn) [Example 80] |
| 5 | Cc1cc(-c2ccc(N3CCOCC3)cc2)c(Cl)c2nn(C(C(=O)Nc3nccs3)c3ncn4c3C[C@@H](F)C4)cc12 (stereo partly drawn) [Example 128, 2-(7-Chloro-4-methyl-6-(4-morpholinophenyl)-2H-indazol-2-yl)-2-((R)-6-fluoro-6,7-dihydro-5H-pyrrolo[1,2-c]imidazol-1-yl)-N-(thiazol-2-yl)acetamide] |
| 10 | CCN1CC[C@@H](c2ccc(-c3cc(Cl)c4cn(C(C(=O)Nc5nccs5)c5ncn6c5C[C@@H](F)C6)nc4c3Cl)cc2)[C@H](F)C1 (mixture of isomers) [Example 38, 2-[4,7-Dichloro-6-[4-[rac-(3S,4S)-1-ethyl-3-fluoro-4-piperidyl]phenyl]indazol-2-yl]-2-[(6R)-6-fluoro-6,7-dihydro-5H-pyrrolo[1,2-c]imidazol-1-yl]-N-thiazol-2-yl-acetamide OR 2-[4,7-Dichloro-6-[4-[rac-(3R,4R)-1-ethyl-3-fluoro-4-piperidyl]phenyl]indazol-2-yl]-2-[(6R)-6-fluoro-6,7-dihydro-5H-pyrrolo[1,2-c]imidazol-1-yl]-N-thiazol-2-yl-acetamide] |
| 3 | O=C(Nc1nccs1)C(c1ncn2c1C[C@@H](F)C2)n1cc2c(Cl)cc(-c3ccc(N4CCN(CCO)CC4)cc3)c(Cl)c2n1 (mixture of isomers) [Example 61, rac-2-(4,7-Dichloro-6-(4-(4-(2-hydroxyethyl)piperazin-1-yl)phenyl)-2H-indazol-2-yl)-2-((R)-6-fluoro-6,7-dihydro-5H-pyrrolo[1,2-c]imidazol-1-yl)-N-(thiazol-2-yl)acetamide] |
| 6 | CC(CCO)N1CCC(Oc2ccc(-c3cc(Cl)c4cn(C(C(=O)Nc5nccs5)c5ncn6c5C[C@@H](F)C6)nc4c3Cl)cc2)CC1 (mixture of isomers) [Example 86, 2-[4,7-Dichloro-6-[4-[[1-(3-hydroxy-1-methyl-propyl)-4-piperidyl]oxy]phenyl]indazol-2-yl]-2-[rac-(6R)-6-fluoro-6,7-dihydro-5H-pyrrolo[1,2-c]imidazol-1-yl]-N-thiazol-2-yl-acetamide] |
| 5 | Cc1cc(-c2ccc(N3CCOCC3)nc2)c(C)c2nn(C(C(=O)Nc3nccs3)c3ncn4c3C[C@@H](F)C4)cc12 (stereo partly drawn) [Example 124, 2-(4,7-Dimethyl-6-(6-morpholinopyridin-3-yl)-2H-indazol-2-yl)-2-((R)-6-fluoro-6,7-dihydro-5H-pyrrolo[1,2-c]imidazol-1-yl)-N-(thiazol-2-yl)acetamide] |
| 6 | O=C(Nc1nccs1)C(c1ncn2c1C[C@@H](F)C2)n1cc2c(Cl)cc(-c3ccc(N4CCN5C[C@H](O)C[C@H]5C4)cc3)c(Cl)c2n1 (stereo partly drawn) [Example 93, 2-(4,7-Dichloro-6-(4-((7R,8aS)-7-hydroxyhexahydropyrrolo[1,2-a]pyrazin-2(1H)-yl)phenyl)-2H-indazol-2-yl)-2-((R)-6-fluoro-6,7-dihydro-5H-pyrrolo[1,2-c]imidazol-1-yl)-N-(thiazol-2-yl)acetamide] |
| 7 | O=C(Nc1nccs1)C(c1ncn2c1C[C@@H](F)C2)n1cc2c(Cl)cc(-c3ccc(OCCN4CC5(CC(O)C5)C4)cc3)c(Cl)c2n1 (stereo partly drawn) [Example 88, 2-(4,7-Dichloro-6-(4-(2-(6-hydroxy-2-azaspiro[3.3]heptan-2-yl)ethoxy)phenyl)-2H-indazol-2-yl)-2-((R)-6-fluoro-6,7-dihydro-5H-pyrrolo[1,2-c]imidazol-1-yl)-N-(thiazol-2-yl)acetamide] |
| 3 | O=C(Nc1nccs1)C(c1ncn2c1C[C@@H](F)C2)n1cc2c(Cl)cc(-c3ccc(CN4CCC(CCO)CC4)cc3)c(Cl)c2n1 (stereo partly drawn) [Example 78, 2-(4,7-Dichloro-6-(4-((4-(2-hydroxyethyl)piperidin-1-yl)methyl)phenyl)-2H-indazol-2-yl)-2-((R)-6-fluoro-6,7-dihydro-5H-pyrrolo[1,2-c]imidazol-1-yl)-N-(thiazol-2-yl)acetamide] |

| SMILES | IC50 [nM] |
| --- | --- |
| CCN1CC[C@H](c2ccc(-c3cc(Cl)c4cn(C(C(=O)Nc5nccs5)c5ncn6c5C[C@@H](F)C6)nc4c3Cl)cc2)[C@@H](F)C1 (mixture of isomers) [Example 32, 2-(4,7-Dichloro-6-(4-(rac-(3R,4R)-1-ethyl-3-fluoropiperidin-4-yl)phenyl)-2H-indazol-2-yl)-2-((R)-6-fluoro-6,7-dihydro-5H-pyrrolo[1,2-c]imidazol-1-yl)-N-(thiazol-2-yl)acetamide] | 4 |
| CCN1CC[C@H](c2ccc(-c3cc(Cl)c4cn(C(C(=O)Nc5nccs5)c5ncn6c5C[C@@H](F)C6)nc4c3Cl)cc2)[C@@H](F)C1 (single isomer, unassigned) [Example 37] | 10 |
